Entries after “also recorded” stand apart in the source; their conditions may differ.
Key:
[1] = system: sera obtained from cancer patients; test: ELISA B cell epitope screening of 15-mer peptides with cancer patient sera; format: binding, human; settings: single 15-mer peptides of SP8 or SP9
Description: FIG. 7. Several novel epitopes were detected in BC patients by ELISA in SP8 and SP9, including 94, 108, 91, 88, 89, and 95 from pool 9.
B cell epitopes have been screened by ELISA or flow cytometry using 4D1, 4E6, 4E11, 6H5, 6E11, 5F11mAbs or G11D10 or P 1/P2e (single chain antibodies generated from 6H5 (FIGS. 5-6), or the sera obtained from cancer patients (FIGS. 7-8). Several anti-HERV-K monoclonal antibodies were able to recognize some of these peptides.

[2] = system: IVS cells; test: IFN-γ ELISPOT with IVS cells (DC pulsed once with HERV-K protein) against MAPs, 9-mer pools or single peptides; format: cell-based, human; settings: donor 449731, IVS cells, FIG. 15C
Description: FIGS. 15A-C. ELISPOT was employed to determine the production of IFN-γ in twelve 15-mer small pools. (FIG. 15A) Numbers of spots detected in multiple pools are shown for a breast cancer patient diagnosed with IDC (Acc 30) or a patient diagnosed with teratoma (Acc 32). (FIG. 15B) Numbers of spots detected in multiple pools are shown for a patient diagnosed with left breast minute foci of sugg papillary lesion (967092) or IDC (Acc 31). SP 1-12 represents small peptide pools #1-12. Pool 0 contains no peptides (as control). (FIG. 15C) T cells obtained from PBMC stimulated once with HERV-K-specific pulsed homologous B cells were reactive with individual MAPs, pools of 9-mer peptides, or single 9-mer peptides. NP: no peptide control.
IVS were obtained from two donor pairs stimulated with DC pulsed once with HERV-K protein. After 7 days (1-week stimulation), IVS cells were used for ELISPOT with 15-mer peptides (FIGS. 15A-B) or MAPs including MAP73, MAP75-76, MAP82-93, MAP 92-93, and MAP95-96 or 9 mer peptide pools (#1 to 5, #5 to 10, #1 to 10, #12 to 17, #18 to 22) or single peptides (#3, #18, and #4.11; FIG. 15C). Candidate epitopes (#4 and #11) were further identified using IVS generated from DC obtained from cancer patients stimulated with HERV-K antigen in this study.

[3] = system: T cells in PBMCs; test: IFN-γ release by ELISA from PBMC stimulated with peptides or protein; format: cell-based, human; settings: stimulated PBMC, FIG. 21A
Description: FIG. 17. T cell stimulation by HERV-K peptides. Peptides (p73-76 and p18-135) or HERV-K SU fusion proteins were used to stimulate PBMC and evaluated in vitro for their ability to stimulate T cells in PBMCs from healthy subjects (ND1007083; left) and/or cancer patients (BC 243; right), based on interferon-γ(IFN-γ) release by ELISA. KLH peptide and GST protein were used as controls. Other negative controls included media only, DMSO, and PBS.
FIG. 18. T cell stimulation by HERV-K peptides. Peptides (p73-76: left; and p18-135: middle) or HERV-K SU fusion proteins (right) were used to stimulate PBMC and evaluated in vitro for their ability to stimulate T cells in PBMCs from healthy subjects and/or cancer patients (BC 243; middle), based on interferon-γ (IFN-γ) release by ELISA. OD values of interferon-γ (IFN-γ) release were compared between normal donors (ND447549, ND1001366, and ND1007083) and cancer patients (OC222, OC 210, OC212, and BC243). OC is ovarian cancer and BC is breast cancer
FIGS. 21A-C. T Cell Stimulation. 9 mer Peptides (HERVK-3, HERVK-4, HERVK-11, and HERVK-18; see Table 1), p73-76 and p18-135 (Table 1 178 and 179), or HERV-K SU fusion proteins were used to stimulate PBMC and evaluated in vitro for their ability to stimulate T cells in PBMCs from healthy subjects and/or cancer patients, based on IFN-γ and Granzyme B release by ELISA. (FIG. 21A) OD values of IFN-γ release were compared in a normal donor (ND291812). (FIG. 21B) OD values of IFN-γ release were compared between a normal donor (ND291817) and an ovarian cancer patient (OC153). (FIG. 21C) OD values of Granzyme B release were compared between a normal donor (ND291817) and an ovarian cancer patient (OC153). Each dot represents an individual clone. Negative controls measured release of effector molecules from cancer cells after treatment with supernatants obtained from PBMCs without stimulation with HERV-K peptides or protein; positive controls were stimulated with PMA/ONO.
Cancer patients were enrolled to evaluate HERV-K as a tumor associated antigen target. Patients provided written informed consent as part of an approved protocol (LAB04-0083) at MD Anderson Cancer Center prior to commencing the studies. Normal healthy donor control blood samples were obtained from Gulf Coast Regional Blood Center, Houston Tex. 40 mL of peripheral blood was obtained from each patient, and peripheral blood mononuclear cells (PBMCs) were isolated by density gradient centrifugation using Histopaque-1077 (Sigma-Aldrich; USA). HLA-A*02 expression in PBMCs obtained from cancer patients and healthy subjects was determined by flow cytometry with PE Mouse anti-human HLA-A2 mAb BB7.2 (BD Pharmingen; San Diego, Calif., USA). Mouse IgG2b was used as an isotype control. PBMCs (5×10^5 cells/well) from either healthy subjects or cancer patients were incubated with Peptide #18-135 ([…]; SEQ ID NO: 178), Peptide #73-76 ([…]; SEQ ID NO: 179) or KLH as control peptide) or proteins (HERV-K env SU protein or GST protein as control) at concentrations of 40 μg/mL in 96-well U-bottom microplates (BD; Franklin Lakes, N.J., USA) in 100 μL of T-cell medium (TCM), consisting of RPMI 1640 (Mediatech; Manassas, Va., USA), 10% human AB serum (Valley Biomedical, Winchester, USA), […] 2-mercaptoethanol, 100 IU/mL interleukin-2 (IL-2), and 0.1 mM MEM nonessential amino acid solution (Invitrogen; Grand Island, N.Y., USA). Half of the TCM was removed and replaced with fresh TCM containing peptides (20 μg/mL) on day 7. After 14 days of culture, the supernatants from cell culture media (PBMC pulsed with peptides or proteins) were harvested and tested for their ability to produce IFN-gamma or IL-2, and granzyme B release was also determined by enzyme-linked immunosorbent assay (ELISA) assay. In order to detect the secreted cytokine in this assay, high-binding plates were coated with 5 μg/ml anti-IFN-γ (Mabtech, Stockholm, Sweden) diluted in PBS buffer at 4° C. overnight. […]

[4] = system: TIL obtained from melanoma patient; test: IFN-γ ELISPOT with TIL from melanoma patient; format: cell-based, human
[5] = system: T cells from HLA A2+ normal donor; test: IFN-γ ELISPOT, T cells stimulated by 9-mer peptide pool-pulsed homologous B cells; format: cell-based, human; settings: T cell stimulated 3 times with peptide pool #12 to 22
Description: FIGS. 12A-B. Identification of HLA-A2 T-cell specific peptides using anti-human IFN-γ ELISPOT with T cells from one HLA A2^+ normal donor. (FIG. 12A) T cells, stimulated by peptide pool-pulsed homologous B cells three (3rd T cells) or four (4th T cells) times were reactive with two pools from a HERV-K HLA A2^+9-mer peptide library (pool #1-11 and pool #12-22). NP is no peptide control. (FIG. 12B) Photographs of actual plates for FIG. 12A.
FIGS. 13A-B. Identification of HLA-A2 T cell specific epitopes using anti-human IFN-γ ELISPOT. T cells obtained from PBMC stimulated by peptide pool-pulsed homologous B cells three (3rd T cells) or four (4th T cells) times, were reactive with individual peptides. (FIG. 13A) Image of ELISPOT. (FIG. 13B) The code of peptides evaluated in ELISPOT assays.
FIGS. 14A-C. Summary of number of ELISPOTs from each individual peptide. Numbers of spots detected (pool 1-11, pool 12-22, and pool 23-33) in ELISPOTS with a single peptide are shown. NP contains no peptide (as control). (FIG. 14A) Summary of number of ELISPOTs from each individual peptide including #1, #2, #3, #5, #6, #7, #8, and #9, and peptide pool #1 to #11. (FIG. 14B) Summary of number of ELISPOTs from each individual peptide including #12, #13, #14, #15, #17, #18, #19, #20, #22 and peptide pool #12 to #22. (FIG. 14C) Summary of number of ELISPOTs from each individual peptide including #23, #24, #25, #26, #27, #28, #30, #31, #32, #33, and peptide pool #23 to #33. 4th T cells indicated the T cells had been stimulated with peptide pool 4 times and 3rd T cells indicated the T cells had been stimulated with peptide pool 3 times.
The inventor used epitope mapping to identify responses to HERV-K peptides in breast cancer patients. They chemically synthesized a HERV-K env nine amino acid (9mer) peptide library (33 HLA A2 restricted peptides) and overlapping 15mer peptide library (144 peptides). Preliminary research has identified two pools from the HERV-K env 9mer peptide library that contain potential CD8+ epitopes, using interferon gamma (IFN-γ) enzyme-linked immunosorbent spot (ELISPOT) assay with T cells from one HLA A2^+ normal donor which was stimulated with the 9mer peptide pool-pulsed homologous dendritic cells (DCs).
HLA-2+ patients were identified by flow cytometry using anti-A2 antibody. Activated B cells were cultured from PBMCs stimulated with irradiated 3T3-CD40L-expressing fibroblasts. Normal donor CD8+ T-cell lines were obtained from PBMCs stimulated with autologous activated B cells pulsed with peptide pools (peptides are in 3 pools: #1-11, #12-22, and #23-33); the stimulation was repeated for 3-4 cycles. HERV-K specific T cells generated from normal donor lines were tested for peptide reactivity using IFN-γ ELISPOT assays (FIGS. 12A-B).

## AAVAGVALHSSVQSV [15-mer 94]
[1]
  B epitope found by ELISA using patient sera: epitopes were found

## AVIMGLIAVTATAAV [15-mer 91]
[1]
  B epitope found by ELISA using patient sera: epitopes were found

## GVALHSSVQSVNFVN [15-mer 95]
[1]
  B epitope found by ELISA using patient sera: epitopes were found

## ILVCLFCLL [HERVK-11]
[2]
  HERV-K specific T cell epitope (IFN-γ ELISPOT): HERV-K specific T cell epitopes
[3]
  IFN-γ release (OD values): Higher IFN-γ release

## KRFIFTLIAVIMGLI [15-mer 89]
[1]
  B epitope found by ELISA using patient sera: epitopes were found

## LILVCLFCL [HERVK-4]
[2]
  HERV-K specific T cell epitope (IFN-γ ELISPOT): HERV-K specific T cell epitopes
[3]
  IFN-γ release (OD values): Higher IFN-γ release

## LMSLEHRFQLQCDWN [15-mer 108]
[1]
  B epitope found by ELISA using patient sera: epitopes were found; also recorded: the only active epitope in each patient's serum

## LNRSKRFIFTLIAVI [15-mer 88]
[1]
  B epitope found by ELISA using patient sera: epitopes were found

## SQTITCENCRLLSCI [15-mer 73]
[4]; TIL from a melanoma patient
  recognition by TILs (IFN-γ ELISPOT): the single peptide in SP7 which was recognized by TILs
[4]; TIL from melanoma patient specimens, FIG. 16A
  number of IFN-γ spots: large number of spots

## TLIAVIMGL [HERVK-15]
[5]
  IFN-γ ELISPOT spots with individual peptide: numerous spots

Source: patent US20150250864A1, “ANTI-CANCER VACCINES” (Board of Regents, The University of Texas System, priority 2012, published 2015)
